Source: article PMC7156458, “Synthetic biology based construction of biological activity-related library of fungal decalin-containing diterpenoid pyrones” (Nature Communications, 2020)
Read-outs that look alike come from different tables or passages of the source.

Legend:
[1] = tested on: human immunodeficiency virus-1 (HIV-1); test: anti-HIV MAGI assay; assay type: cell-based; details: Human immunodeficiency virus 1, MAGI, anti-HIV
Text: We examined the inhibitory activities of DDPs against various species of bacteria (both gram-negative and gram-positive bacteria), fungi and viruses. […] In contrast, preliminary screening of the DDPs for anti-viral agents with hepatitis B virus (HBV), measles virus (MV), Epstein-Barr virus (EBV), herpes simplex virus (HSV) and human immunodeficiency virus-1 (HIV-1) indicated their selective inhibition of HIV.

ACHN = test: cells; set-up: species or system JFCR39 human cancer cell lines; JFCR39 panel growth inhibition, sulforhodamine B total protein after 48 h; details: Homo sapiens, ACHN, 48 h
Procedure, shortened: (§1)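 Steps: culture JFCR39 cells in RPMI-1640/5% FBS at 37°C, 5% CO2; add compound for 48 h; stain total protein with sulforhodamine B; derive GI50 from duplicate wells. Panel fingerprints were compared against a reference database by COMPARE.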

KM-12 = test: cells; set-up: species or system JFCR39 human cancer cell lines; JFCR39 panel growth inhibition, sulforhodamine B total protein after 48 h; details: Homo sapiens, KM12, 48 h
Procedure, shortened: as §1

LOX-IMVI = test: cells; set-up: species or system JFCR39 human cancer cell lines; JFCR39 panel growth inhibition, sulforhodamine B total protein after 48 h; details: Homo sapiens, LOX IMVI, 48 h
Procedure, shortened: as §1

MCF-7 = test: cells; set-up: species or system JFCR39 human cancer cell lines; JFCR39 panel growth inhibition, sulforhodamine B total protein after 48 h; details: Homo sapiens, MCF7, 48 h
Procedure, shortened: as §1

MKN-B = test: cells; set-up: species or system JFCR39 human cancer cell lines; JFCR39 panel growth inhibition, sulforhodamine B total protein after 48 h; details: 48 h
Procedure, shortened: as §1

NCI-H226 = test: cells; set-up: species or system JFCR39 human cancer cell lines; JFCR39 panel growth inhibition, sulforhodamine B total protein after 48 h; details: Homo sapiens, NCI-H226, 48 h
Procedure, shortened: as §1

NCI-H460 = test: cells; set-up: species or system JFCR39 human cancer cell lines; JFCR39 panel growth inhibition, sulforhodamine B total protein after 48 h; details: Homo sapiens, NCI-H460, 48 h
Procedure, shortened: as §1

[2] = cytotoxicity in Drosophila DL1 cells; assay type: cell-based; details: Drosophila, DL1 cells
Method: (§2) We screened the DDPs on the Drosophila assay system for cytotoxicity, inhibitory activity of innate immune signalling and insecticidal activity. The cytotoxicity of the DDPs was evaluated using two cell lines, embryonic macrophage-derived DL1 cells[58]–[60] and larval blood cell-derived l(2)mbn cells, and their IC50 values are listed in Supplementary Table 23.

DL1 cells = test: cytotoxicity in Drosophila DL1 cells; assay type: cell-based; details: DL1 cells; for % viability, viability 2: replicate 2, relative to DMSO 1%; for % viability, viability 1: replicate 1, relative to DMSO 1%; for IC50: cytotoxicity
Method: as §2

[3] = cytotoxicity in Drosophila l(2)mbn cells; assay type: cell-based; details: Drosophila
Method: as §2

l(2)mbn cells = test: cytotoxicity in Drosophila l(2)mbn cells; assay type: cell-based; details: for Luminescence Raw1: replicate 1; for Luminescence Raw2: replicate 2; for % viability, viability 2: replicate 2, relative to DMSO 1%; for % viability, viability 1: replicate 1, relative to DMSO 1%
Method: as §2

BSY-1 = test: cells; set-up: species or system JFCR39 human cancer cell lines; JFCR39 panel growth inhibition, sulforhodamine B total protein after 48 h; details: BSY-1, 48 h
Procedure, shortened: as §1

[4] = replicate 1, relative to DMSO 1%, read-out: % viability, viability 1
[5] = replicate 2, relative to DMSO 1%, read-out: % viability, viability 2

SMILES: C=C1CC[C@@H]2[C@](C)(CC[C@H]3O[C@H](C=C(C)C)C[C@@]23C)[C@@H]1Cc1c(OC)oc(C)c(C)c1=O [Compound 22, O-methylated higginsianin A]
- EC50 ([1]; average of numeric determinations, read-out: Avg. EC50): 0.143 µM
- GI50 (ACHN): 2.33 µM
- GI50 (KM-12): 10.6 µM
- GI50 (LOX-IMVI): 1.17 µM
- GI50 (MCF-7): 1.5 µM
- GI50 (MKN-B): 0.54 µM
- GI50 (NCI-H226): 3.79 µM
- GI50 (NCI-H460): 0.0807 µM

SMILES: C=C1CCC2C(C)(CCC=C(C)C)C(O)CCC2(C)C1Cc1c(OC)oc(C)c(C)c1=O (stereo not drawn) [Compound 11]
- viability at 0.04 µM [2, 4]: 216%
- viability at 0.04 µM [2, 5]: 202%
- viability at 0.2 µM ([2]; 0.2 µM, replicate 1, relative to DMSO 1%, read-out: % viability, viability 1): 191%
- viability at 10 µM [2, 4]: 20.5%
- viability at 10 µM [2, 5]: 22.2%
- viability at 20 µM [2, 4]: 22.4%
- viability at 20 µM [2, 5]: 22.4%
- Luminescence Raw1 (DL1 cells; 0.04 µM, replicate 1): 2962736
- Luminescence Raw2 (DL1 cells; 0.04 µM, replicate 2): 2763628
- Luminescence Raw1 (DL1 cells; 0.2 µM, replicate 1): 2626203
- Luminescence Raw2 (DL1 cells; 0.2 µM, replicate 2): 2499962
- % viability, viability 2 (DL1 cells; 0.2 µM): 182.283%
- Luminescence Raw1 (DL1 cells; 1 µM, replicate 1): 427059
- % viability, viability 1 (DL1 cells; 1 µM): 31.1387%
- Luminescence Raw2 (DL1 cells; 1 µM, replicate 2): 482949
- % viability, viability 2 (DL1 cells; 1 µM): 35.2139%
- Luminescence Raw1 (DL1 cells; 4 µM, replicate 1): 281027
- % viability, viability 1 (DL1 cells; 4 µM): 20.4909%
- Luminescence Raw2 (DL1 cells; 4 µM, replicate 2): 305186
- % viability, viability 2 (DL1 cells; 4 µM): 22.2524%
- Luminescence Raw1 (DL1 cells; 10 µM, replicate 1): 281749
- Luminescence Raw2 (DL1 cells; 10 µM, replicate 2): 304825
- Luminescence Raw1 (DL1 cells; 20 µM, replicate 1): 307710
- Luminescence Raw2 (DL1 cells; 20 µM, replicate 2): 306988
- IC50 (DL1 cells; average±SEM): 0.4 ± 0.02 µM
- IC50 (DL1 cells; read-out: IC50 (1), replicate 1): 0.38 µM
- IC50 (DL1 cells; read-out: IC50 (2), replicate 2): 0.415 µM
- IC50 (DL1 cells; read-out: IC50 Average, average of two replicates): 0.397 µM
- viability at 0.04 µM ([3]; 0.04 µM, replicate 1, relative to DMSO 1%, read-out: % viability, viability 1): 78.2%
- viability at 0.2 µM [3, 4]: 91.6%
- viability at 0.2 µM [3, 5]: 70.9%
- viability at 20 µM [3, 4]: 2.02%
- viability at 20 µM [3, 5]: 2.72%
- Luminescence Raw1 (l(2)mbn cells; 0.04 µM): 4909467
- Luminescence Raw2 (l(2)mbn cells; 0.04 µM): 3629794
- % viability, viability 2 (l(2)mbn cells; 0.04 µM): 57.8063%
- Luminescence Raw1 (l(2)mbn cells; 0.2 µM): 5752008
- Luminescence Raw2 (l(2)mbn cells; 0.2 µM): 4449089
- Luminescence Raw1 (l(2)mbn cells; 1 µM): 2597064
- % viability, viability 1 (l(2)mbn cells; 1 µM): 41.3596%
- Luminescence Raw2 (l(2)mbn cells; 1 µM): 1297263
- % viability, viability 2 (l(2)mbn cells; 1 µM): 20.6596%
- Luminescence Raw1 (l(2)mbn cells; 4 µM): 133995
- % viability, viability 1 (l(2)mbn cells; 4 µM): 2.134%
- Luminescence Raw2 (l(2)mbn cells; 4 µM): 142288
- % viability, viability 2 (l(2)mbn cells; 4 µM): 2.266%
- Luminescence Raw1 (l(2)mbn cells; 10 µM): 107674
- % viability, viability 1 (l(2)mbn cells; 10 µM): 1.715%
- Luminescence Raw2 (l(2)mbn cells; 10 µM): 99742
- % viability, viability 2 (l(2)mbn cells; 10 µM): 1.588%
- Luminescence Raw1 (l(2)mbn cells; 20 µM): 126784
- Luminescence Raw2 (l(2)mbn cells; 20 µM): 170772
- IC50 (l(2)mbn cells; cytotoxicity, average±SEM): 0.47 ± 0.21 µM
- IC50 (l(2)mbn cells; read-out: IC50 (1), cytotoxicity, replicate 1): 0.681 µM
- IC50 (l(2)mbn cells; read-out: IC50 (2), cytotoxicity, replicate 2): 0.259 µM
- IC50 (l(2)mbn cells; read-out: IC50 Average, cytotoxicity, average of two replicates): 0.47 µM
- EC50 ([1]; MAGI assay, read-out: EC50): < 0.2 µM
- EC50 ([1]; single determinations, read-out: Efficacy (EC50)): > 10 µM
- GI50 (ACHN): 11 µM
- GI50 (BSY-1): 11.5 µM
- GI50 (MCF-7): 1.88 µM
- GI50 (MKN-B): 3.7 µM
- GI50 (NCI-H226): 18.2 µM
- GI50 (NCI-H460): 0.0865 µM
